The subject of assay [1] is hyperlipidemia rats. Briefly: Hypolipidemic animal experiment: blood lipid levels in high-fat feed rats. It is filed as in vivo, SD rats. As to conditions: serum, positive drug 1.5 mg/kg intragastric, 4 weeks, X ± S, n = 10. On the procedure: 3. […] From the day of experiment, the blank control group and the model control group were intragastrically administered with normal saline (volume: 10 ml/kg), the administration group was intragastrically administered with corresponding drugs once a day, the body weight was weighed once a week, and the dosage was adjusted according to the body weight. The blank control group was fed with the normal feed, the other groups was fed with high-fat feed. During the experiment, free feeding, free drinking, continuous molding and drug administration for prevention were carried out for 4 weeks.
4. Observation indexes: after the last administration, the rats fasted for 12 h without fasting water. The rats were anesthetized with 3% pentobarbital sodium, blood was collected from the abdominal aorta, serum was centrifugally separated, and the serum total cholesterol (TC), triglyceride (TG), high-density lipoprotein cholesterol (HDL-C), low-density lipoprotein cholesterol (LDL-C), alanine aminotransferase (ALT) and aspartate aminotransferase (AST) values were measured.

Assay [2] relates to hyperlipidemia rats. Nature of the assay: Effect on liver function (serum ALT, AST) of high-fat feed rats. It is filed as in vivo, SD rats. As to conditions: positive drug 1.5 mg/Kg-d, 4 weeks, X ± S, n = 10. The text has this:
1. Experimental materials: 150 healthy SD male and female rats in clean grade, with body weight of (150.2±8.9) g.
2. Feed: general feed, high-fat feed formula: 72.7% of basic feed, 2% of cholesterol, 5% of egg yolk powder, 10% of lard, 0.2% of propylthiouracil, 10% of sucrose and 0.1% of sodium cholate.
3. Grouping and administration of animals: the purchased experimental rats were adaptively fed for 1 week in a lab, original numbers were assigned according to the weighing order, and the rats were randomly divided into a blank control group, a model control group, a pharmaceutical composition (respectively prepared as in Examples 3, 6, 8 and 10, and added with 50 ml of water per 10 g to be dissolved to obtain a solution) low-dose group (5 ml/kg·d), a middle-dose group (10 ml/kg-d), a high-dose group (15 ml/kg·d), a positive drug (simvastatin) control group (1.5 mg/kg, volume: 10 ml/kg) by looking up a random number table, and there were 10 rats in each group. […]
4. […] The rats were anesthetized with 3% pentobarbital sodium, blood was collected from the abdominal aorta, serum was centrifugally separated, and the serum total cholesterol (TC), triglyceride (TG), high-density lipoprotein cholesterol (HDL-C), low-density lipoprotein cholesterol (LDL-C), alanine aminotransferase (ALT) and aspartate aminotransferase (AST) values were measured. […]

As to `CCC(C)(C)C(=O)O[C@H]1C[C@@H](C)C=C2C=C[C@H](C)[C@H](CC[C@@H]3C[C@@H](O)CC(=O)O3)[C@H]21` [Positive drug, simvastatin], in the assay on hyperlipidemia rats [1], the HDL-C came to 1.23 ± 0.17 mmol/L, the LDL-C came to 1.68 ± 1.91 mmol/L, the TC was 8.42 ± 4.79 mmol/L and the TG was determined as 0.49 ± 0.18 mmol/L. In the assay with hyperlipidemia rats [2], this compound registered an ALT of 45.85 ± 5.21 U/L and an AST of 22.32 ± 7.56 U/L.

Values taken from US20180028543A1, “HYPOLIPIDEMIC COMPOSITION AND USE THEREOF” (priority 2014, published 2018).
